Reference: US4148786A, “Analgesic polypeptide” (American Home Products Corporation, priority 1978, dated 1979)
Where “and” joins values, the source holds several entries; their conditions need not be identical. Equal values may be shown once. Read-outs that look alike come from different tables or passages of the source. Where a SMILES comes first, the peptide text is derived from it. Bridges are numbered along the chain shown (N, C = ends). [ ]: non-standard residue; d: D form.

Experiments:
male rats [1] = assay: rat-tail flick test of D'Amour and Smith; format: in vivo
male rats [2] = assay: rat-tail flick test of D'Amour and Smith; format: in vivo; conditions: for Positive Responses / Total Possible Responses: all time periods
Description: The holders were situated so that a high intensity light beam would shine on the tip of the rats tail. The light beam intensity was adjusted so that normal rats respond by removing their tails from the light stimulus within from 3 to 8 seconds. The average of three time readings for removal of a rats tail from the light beam, taken 20 minutes apart serves as a pre-drug control. The rats were selected for use based upon control readings that agreed within one second. The compounds of this invention were then administered intravenously and the test performed at 15, 30 and 60 minutes to determine the animals reaction time which was compared with the control average and tested for significance. The number of rats showing analgesia at each time period out of the total group for each dose administered is noted as a ratio and the number of positive responses observed is relative to the total number of challenges for each group of rats.

[3] = administered peripherally; cited from earlier work
rats [4] = conditions: cited from earlier work; for analgesia: injection in the brain ventricle in rats
mice = conditions: central administration; cited from earlier work
rats [5] = conditions: peripheral (i.v.); cited from earlier work
opiate receptor = opiate receptor binding affinity (method of Chang et al.); conditions: two assays
Description: The opiate receptor binding affinity of the compound of Example 2 was determined following the method of Chang et al., Life Sciences, 18, 1473-82(1976).

[6] = central administration; cited from earlier work

| Molecule | Positive Responses / Total Possible Responses (male rats [1]; 1 mg/kg iv, all time periods) | No. Analgesic / Total No. Tested (male rats [1]; 5 mg/kg iv, 30 minutes) | No. Analgesic / Total No. Tested (male rats [2]; 1 mg/kg iv, 15 minutes) | No. Analgesic / Total No. Tested (male rats [2]; 1 mg/kg iv, 30 minutes) | No. Analgesic / Total No. Tested (male rats [2]; 1 mg/kg iv, 60 minutes) | Comments: respiratory depression (male rats [2]; 5 mg/kg iv) | No. Analgesic / Total No. Tested (male rats [2]; 5 mg/kg iv, 15 minutes) | No. Analgesic / Total No. Tested (male rats [2]; 5 mg/kg iv, 60 minutes) | Positive Responses / Total Possible Responses (male rats [2]; 5 mg/kg iv) | further results |
| --- | --- | --- | --- | --- | --- | --- | --- | --- | --- | --- |
| CN[C@@H](Cc1ccc(O)cc1)C(=O)N[C@@H]1CSSC[C@H](C(N)=O)NC(=O)[C@H](Cc2ccccc2)NC(=O)CNC1=O [Example 6, N-Methyl-L-tyrosyl-D-cysteinyl-glycyl-L-phenylalanyl-D-cysteinylamide cyclic (2-5) disulfide] | 14/18 | 4/4 | 6/6 | 5/6 | 3/6 | 3/3 respiratory depression | 6/6 | 3/3 | 13/13 | Comments: dead (male rats [1]; 5 mg/kg iv): 3 |
| H-Tyr-D-Ala-Gly-Phe-D-Leu-OH | – | – | – | – | – | – | – | – | – | analgesic activity on peripheral administration [3]: exhibit peripheral analgesic activity; antinociceptive and behavioral effects (rats [4]; central administration, rats): exhibit antinociceptive and behavioral effects; antinociceptive and behavioral effects (mice): exhibit antinociceptive and behavioral effects |
| NC(=O)[C@@H]1CSSC[C@@H](NC(=O)[C@@H](N)Cc2ccc(O)cc2)C(=O)NCC(=O)N[C@@H](Cc2ccccc2)C(=O)N1 [Example 3, L-Tyrosyl-D-Cysteinyl-glycyl-L-phenylalanyl-L-cysteinyl amide cyclic (2-5) disulfide] | 7/18 | 5/6 | 4/6 | 2/6 | 1/6 | 3/6 moderate to severe respiratory | 6/6 | 4/6 | 15/18 | – |
| H-Tyr-Gly-Gly-Phe-Leu-OH [leucine-enkephalin] | – | – | – | – | – | – | – | – | – | analgesia (rats [4]): induce a profound analgesia |
| H-Tyr-Gly-Gly-Phe-Met-OH [methionine-enkephalin] | – | – | – | – | – | – | – | – | – | analgesia (rats [4]): induce a profound analgesia |
| H-Y[dM]GFP-NH2 | – | – | – | – | – | – | – | – | – | analgesic activity (rats [5]): peripheral (i.v.) analgesic activity |
| NC(=O)[C@H]1CSSC[C@@H](NC(=O)[C@@H](N)Cc2ccc(O)cc2)C(=O)NCC(=O)N[C@@H](Cc2ccccc2)C(=O)N1 [Example 2, L-Tyrosyl-D-cysteinyl-glycyl-L-phenylalanyl-D-cysteinyl amide cyclic (2-5) disulfide] | 10/12 and 12/18 | 5/5 | 4/5 and 4/6 | 4/4 and 5/6 | 2/3 and 3/6 | 4/4 Respiration very depressed | 5/5 | 4/4 | 14/14 | displacement potency relative to morphine (opiate receptor): 100 times that of morphine and 109 times that of morphine; No. Analgesic / Total No. Tested (male rats [1]; 0.1 mg/kg iv, 15 minutes): 2/6; No. Analgesic / Total No. Tested (male rats [1]; 0.1 mg/kg iv, 30 minutes): 0/6; No. Analgesic / Total No. Tested (male rats [1]; 0.1 mg/kg iv, 60 minutes): 0/6; Positive Responses / Total Possible Responses (male rats [1]; 0.1 mg/kg iv, all time periods): 2/18; Comments: respiratory depression (male rats [1]; 0.5 mg/kg iv): 1/6 slight respiratory depression; No. Analgesic / Total No. Tested (male rats [1]; 0.5 mg/kg iv, 15 minutes): 3/6 and 4/6; No. Analgesic / Total No. Tested (male rats [1]; 0.5 mg/kg iv, 30 minutes): 2/6 and 3/6; Positive Responses / Total Possible Responses (male rats [1]; 0.5 mg/kg iv, all time periods): 6/10 and 9/18; Comments: dead (male rats [1]; 1 mg/kg iv): 3/6; Comments: respiratory depression (male rats [1]; 1 mg/kg iv): 2/3 severe respiratory depression and Slight depression; Comments: dead (male rats [1]; 5 mg/kg iv): 2/6; Positive Responses / Total Possible Responses (male rats [1]; 5 mg/kg s.c.): 7/24; No. Analgesic / Total No. Tested (male rats [1]; 5 mg/kg s.c., 15 minutes): 4/6; No. Analgesic / Total No. Tested (male rats [2]; 0.5 mg/kg iv, 60 minutes): 1/6 and 2/6 |
| CN1C(=O)CNC(=O)[C@H](NC(=O)[C@@H](N)Cc2ccc(O)cc2)CSSC[C@H](C(N)=O)NC(=O)[C@@H]1Cc1ccccc1 [Example 4, L-Tyrosyl-D-cysteinyl-glycyl-N-methyl-L-phenylalanyl-D-cysteinylamide cyclic (2-5) disulfide] | – | 4/6 | – | – | – | 3/6 respiratory depression | 5/6 | 3/6 | 12/18 | – |
| N=C(N)NCCC[C@H](N)C(=O)N[C@@H](Cc1ccc(O)cc1)C(=O)N[C@@H]1CSSC[C@H](C(N)=O)NC(=O)[C@H](Cc2ccccc2)NC(=O)CNC1=O [Example 5, L-Arginyl-L-tyrosyl-D-cysteinyl-glycyl-L-phenylalanyl-D-cysteinylamide cyclic (3-6) disulfide] (H-RY[dC]GF[dC]-NH2; disulfide 3-6) | 9/18 | 5/5 | 4/6 | 3/6 | 2/6 | 3/5 respiratory depression | 6/6 | 5/5 | 16/16 | No. Analgesic / Total No. Tested (male rats [1]; 0.5 mg/kg iv, 15 minutes): 2/6; No. Analgesic / Total No. Tested (male rats [1]; 0.5 mg/kg iv, 30 minutes): 2/6; Positive Responses / Total Possible Responses (male rats [1]; 0.5 mg/kg iv, all time periods): 4/18; Comments: dead (male rats [1]; 5 mg/kg iv): 1; No. Analgesic / Total No. Tested (male rats [2]; 0.5 mg/kg iv, 60 minutes): 0/6 |
| H-Tyr-D-Ala-Gly-Phe-Met-NH2 | – | – | – | – | – | – | – | – | – | analgesia [6]: long lasting analgesic |
| H-Tyr-D-Ala-Gly-Phe-D-Met-NH2 | – | – | – | – | – | – | – | – | – | analgesic activity (rats [4]; centrally administered, rats): produced analgesic activity |
